Where no end group is shown, it is not given here.
Assays:
hMSCs [1] = experiment: Loss of stemness: STRO-1 expression by immunostaining; type: cell-based, human
How it was run: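 hMSCs cultured on plastic with GFR-binding peptides in solution (some sequences tested with a bioactive carrier), then fixed, permeabilized and immunostained for Stro-1. Stro-1-positive contact number and area quantified by thresholded image analysis, minimum 30 cells per condition.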

hMSCs [2] = experiment: CD-105 expression by immunostaining; type: cell-based, human; settings: Table 7, previously reported peptides in solution (not combined with a bioactive carrier)
Procedure: For this type of quantification the freeware image analysis ImageJ® software was used. The raw image was first converted to an 8-bit file, and then the unsharp mask feature was used (settings 1:0.2) to remove the image background (rolling ball radius 10). After smoothing, the resulting image, which appears similar to the original photomicrograph but with minimal background, was then converted to a binary image by setting a threshold. Threshold values were determined empirically by selecting a setting, which gave the most accurate binary image for a subset of randomly selected photomicrographs. The cell area was determined by manual delineation on raw fluorescent images. Total contact area and mean contact area per cell were calculated by “analyse particules” in ImageJ®. A minimum of 30 cells per condition were analyzed. Stro-1, CD-34+, and CD-105 expressions were determined using this procedure.
Likewise, using the method detailed in the description, the RMSD of another 27 previously reported peptide sequences have been determined (Table 7) and correlated with the expressions of STRO-1 and CD-105 in solution. […] Data were obtained with peptides in solution (i.e. not combined with a bioactive carrier).

[3] = system: Human Hematopoeitic Stem Cells; experiment: Differentiation of human hematopoietic stem cells: CD34+ expression by immunostaining; type: cell-based; settings: peptides in solution in the cell culture media, 400 ng/mL, 48 hours
From the text: (§1) The following starting materials and reagents were used: • Apatite ceramics (also called apatite or ceramic in the present invention) were synthetized as described in Mater Res. 2004; 7(4): 625-630. • Titanium was obtained from Goodfellow®. • Hydrogel (poly(acrylamide-co-acrylic acid) gel) was synthetized as described in Langmuir 2011; 27(22):13635-42. • PEEK was obtained from Goodfellow®. • PET (Poly(ethylene terephthalate) was obtained from Goodfellow®. • Type-I collagen sponge was obtained from Sigma®. • Hexane was obtained from Sigma®. • 3-succinimidyl-3-maleimidopropionate (SMP) was obtained from Sigma®. • DMF was obtained from Sigma®. • PBS 1× was obtained from Gibco®. • 3-(ethoxydimethylsilyl)propylamine was obtained from Sigma®. • Ammonium persulfate was obtained from Biorad®. • N,N,N′,N′-tetramethylethylenediamine was obtained from Aldrich®. • Acrylamid was obtained from Merck®. • Acrylic acid was obtained from Merck®. • N,N-methylene-bis-acrylamide was obtained from Merck®. • NaOH was obtained from Aldrich®. • N,N,N′,N′-tetramethylethylenediamine was obtained from Aldrich®. • Dimethylaminopropyl-3-ethylcarbodiimide hydrochloride was obtained from Aldrich®. • N-hydroxysuccinimide was obtained from Aldrich®. • 2-(N-morpholino)-ethane sulfonic acid was obtained from Aldrich®. • MilliQ water: is water characterised in terms of resistivity (typically 18.2 MΩ·cm at 25° C.). • Low glucose Dulbecco's Modified Eagle Medium (DMEM) was obtained from Invitrogen® • Minimum Essential Medium Eagle without ascorbic acid (αMEM) was obtained from Invitrogen®. • All of the cell culture experiments were carried out without any serum in the medium for the first 8 hours of culture. • Osteoblast progenitors or precursor osteoblasts: MC3T3-E1 cells were obtained from ATCC®. These cells were cultured in Alpha-MEM medium supplemented with 10% fetal calf serum (FCS) and 1% penicillin/streptomycin. All cells were used at a low passage number (passage 7), were subconfluently cultured and were seeded at 10^4 cells/cm^2 for the purpose of the experiments. • Human bone marrow Mesenchymal Stem Cells (hMSCs) were obtained from Lonza®. These cells were cultured in Alpha-MEM supplemented with 10% (v/v) FBS and 1% penicillin/streptomycin and incubated in a humidified atmosphere containing 5% (v/v) CO2 at 37° C. All cells were used at a low passage number (passage 2 to 4), were subconfluently cultured and were seeded at 10^4 cells/cm^2 for the purpose of the experiments. • Human adipose Mesenchymal Stem Cells (haMSCs) were obtained from Lonza®. These cells were cultured in Alpha-MEM supplemented with 10% (v/v) FBS and 1% penicillin/streptomycin and incubated in a humidified atmosphere containing 5% (v/v) CO2 at 37° C. All cells were used at a low passage number (passage 3 to 4), were subconfluently cultured and were seeded at 10^4 cells/cm^2 for the purpose of the experiments. • Mouse Hair Follicle Stem Cells were isolated and cultured as described in Methods Mol Biol. 2010; 585:401-20. • Neuron cells are Neuronal Schwann Cells obtained from ATCC®. These cells were cultured in Dulbecco's Modified Eagle's Medium supplemented with 10% (v/v) FBS and 1% penicillin/streptomycin and incubated in a humidified atmosphere containing 5% (v/v) CO2 at 37° C. All cells were used at a low passage number (passage 6-8), were subconfluently cultured and were seeded at 10^4 cells/cm^2 for the purpose of the experiments. • Human umbilical-vein endothelial cells (HUVECs) were purchased from Promocell®. HUVECs were isolated and grown on gelatin coated culture flasks in a complete HUVEC culture medium (IMDM (Invitrogen, France) supplemented with 20% (v/v) fetal bovine serum (FBS) (PAA, France) and 0.4% (v/v) EC growth supplement/heparin kit (Promocell, France)). Cells were subcultured by using trypsin/EDTA (Invitrogen, France) and maintained in a humidified atmosphere containing 5% CO2 at 37° C. These cells were used at a passage number 3 to 5 for the purpose of the experiments. […]

[4] = Stability of non-covalent deposit of FITC-labelled peptides on apatite ceramics or type-I collagen sponge; type: physicochemical; settings: non-covalent coating, after 3, 7 or 10 days
Procedure: Non-covalent modifications of the materials were performed in air atmosphere at room temperature. The non-covalent coating strategy consisted in using a mixture of inducing peptide (SEQ ID NO: 23; concentration of 1×10^−3M) with an apatite ceramics implant or a mixture of inducing peptide (SEQ ID NO: 22; concentration of 1×10^−3M) with a type-I collagen sponge. The non-covalently coated conventional materials were characterized by using fluorescent peptides (Here SEQ ID NO: 22 and 23 covalently bound to fluorescein isothiocyanate (FITC), FIG. 6). The results shown here in FIG. 6 were obtained from experiments performed with apatite ceramics and a type-I collagen sponge. […] Indeed, after 3, 7 or 10 days, the osteogenic peptides were still coupled to the ceramics or the type-I collagen (FIGS. 7a and b).

Hair Follicle Stem Cells = experiment: Loss of quiescence and activation of hair follicle stem cells on 73 kPa hydrogels (Sox2, BMP-6 release); type: cell-based, mouse; settings: 73 kPa hydrogels covalently modified with peptides
From the text: as §1, with “C.” for “C. All cells were used at a low passage number (passage 3 to 4), were subconfluently cultured and were seeded at 10^4 cells/cm^2 for the purpose of the experiments. • Mouse Hair Follicle Stem Cells were isolated and cultured as described in Methods Mol Biol. 2010; 585:401-20. • Neuron cells are Neuronal Schwann Cells obtained from ATCC®. These cells were cultured in Dulbecco's Modified Eagle's Medium supplemented with 10% (v/v) FBS and 1% penicillin/streptomycin and incubated in a humidified atmosphere containing 5% (v/v) CO2 at 37° C. All cells were used at a low passage number (passage 6-8), were subconfluently cultured and were seeded at 10^4 cells/cm^2 for the purpose of the experiments. • Human umbilical-vein endothelial cells (HUVECs) were purchased from Promocell®. HUVECs were isolated and grown on gelatin coated culture flasks in a complete HUVEC culture medium (IMDM (Invitrogen, France) supplemented with 20% (v/v) fetal bovine serum (FBS) (PAA, France) and 0.4% (v/v) EC growth supplement/heparin kit (Promocell, France)). Cells were subcultured by using trypsin/EDTA (Invitrogen, France) and maintained in a humidified atmosphere containing 5% CO2 at 37° C. These cells were used at a passage number 3 to 5 for the purpose of the experiments.”

[5] = Table 7, previously reported peptides in solution (not combined with a bioactive carrier)
[6] = Table 8, SEQ ID NO: 1 to 49 tested in combination with a bioactive carrier (titanium, ceramics, collagen, etc.)
[7] = Table 8, SEQ ID NO: 2242 to 2267 tested in solution

## 2235 (APTALSAISMLYFDESGNVVLRQYEDMVVEG; Peptide reported in US20120244575, SEQ ID NO:4400) [compound 2235]
hMSCs [1]; [5]
  STRO-1 expression (%): 77%
hMSCs [2]
  CD-105 expression (%): 63%

## 2156 (APVKMEPLPTVYYDDMGVPTEQLSNDMVEESGSL; GFR-binding peptide) [compound 2156]
[3]
  CD34+ Expression (%): 25%

## 2152 (IPKASSVPQSSSNITMQIMGGGGGGGIGEMSSSVKSSGSL; GFR-binding peptide) [compound 2152]
[3]
  CD34+ Expression (%): 30%

## 2154 (VPTAAEPLTMLYYEIVRKKPIFEQLSNMVEHS; GFR-binding peptide) [compound 2154]
[3]
  CD34+ Expression (%): 21%

## GTPGPKVPKPSSAPTQLSAISTLYLDEYDKVVLKNYQNMAVR (GTPGPKVPKPXXAPTQLSAISTLYLDEYDKVVLKNYQNMAVR; GFR-binding peptide; MOD_RES (11), (12): Xaa is C or S) [SEQ ID NO: 23]
[4]
  release of peptide from apatite ceramics over time: no significant release

## 2150 (PTSSAPTDLRSVKMAKVEIVRKKPIFKEVQVDMVVKASGSH; GFR-binding peptide) [compound 2150]
[3]
  CD34+ Expression (%): 26%

## WWFWGKVPKPSSAPTQLSAISTLYLDEYDKVVLKNYQNMVVR (WWFWGKVPKPXXAPTQLSAISTLYLDEYDKVVLKNYQNMVVR; GFR-binding peptide; MOD_RES (11), (12): Xaa is C or S) [SEQ ID NO: 22]
[4]
  release of peptide from type-I collagen sponge over time: no significant release

## 42 (CGIPEPSSVPEKTSSLSLLFFDENKNVVLKVYPNM; not fully specified; ends and bridges not checked) [compound 42]
hMSCs [1]; [6]
  STRO-1 expression (%): 28%
Hair Follicle Stem Cells
  BMP-6 release in the cell culture medium: decrease
  Sox2 protein expression: increase

## 2149 (VSQAARPVQTRKIDDMGVPTKKATVAAVKS; GFR-binding peptide) [compound 2149]
[3]
  CD34+ Expression (%): 28%

## 2157 (EPSSVSQAAEPLPIVYYRIKPHQGQHEQLSNMIVKSSKSS; GFR-binding peptide) [compound 2157]
[3]
  CD34+ Expression (%): 23%

## 2148 (KASSVPQEERPVQMRKIGGGGGGGKKATVMIVRSSKSS; GFR-binding peptide) [compound 2148]
[3]
  CD34+ Expression (%): 32%

## 2155 (EPSSSRVRLEPLTTLYYGGGGGGGEQLSNVVEEHSKSS; GFR-binding peptide) [compound 2155]
[3]
  CD34+ Expression (%): 29%

## CGIPEPSSVPEKMSSLSILFFDENKNVVLKVYPNM (CGIPEPXXVPEKMSSLSILFFDENKNVVLKVYPNM; GFR-binding peptide; MOD_RES (7), (8): Xaa is C or S) [SEQ ID NO: 41]
Hair Follicle Stem Cells
  BMP-6 release in the cell culture medium: decrease
  Sox2 protein expression: increase

## 2238 (CCAPTELSAISVLYFDDSSNVILKKYEDMVVEACGCR; Comparative sequence) [compound 2238]
hMSCs [1]; [5]
  STRO-1 expression (%): 76%
hMSCs [2]
  CD-105 expression (%): 72%

## 2215 (VPQTLDPLPIIYYVGRNVRVEQLSNMVVRA; Comparative sequence) [compound 2215]
hMSCs [1]; [5]
  STRO-1 expression (%): 71%
hMSCs [2]
  CD-105 expression (%): 68%

## 2153 (KASSSRVKMSNITVQIMRIKPHQGQHIGEMSVVEEHASGSH; GFR-binding peptide) [compound 2153]
[3]
  CD34+ Expression (%): 22%

## 2240 (KPCCAPTELSAISVLYFDDSSNVILKKYEDMVVEACGCR; Peptide reported in US20050250936, SEQ ID NO:119) [compound 2240]
hMSCs [1]; [5]
  STRO-1 expression (%): 73%
hMSCs [2]
  CD-105 expression (%): 69%

## 2147 (IPKASSAPVGQRPVQMRKIDKGVVTYKKATVSSVEESGSL; GFR-binding peptide) [compound 2147]
[3]
  CD34+ Expression (%): 27%

## 2151 (PTSSVPTGGRSVKMAKVDKGVVTYKEVQVMVVAESKSS; GFR-binding peptide) [compound 2151]
[3]
  CD34+ Expression (%): 24%

## 6 (CAVPKAXXAPTKLSATSVLYYDSSNNVVLRKHRNMVVK; GFR-binding peptide; MOD_RES (7), (8): Xaa is C or S) [compound 6]
hMSCs [1]; [6]
  STRO-1 expression (%): 26%

## 2230 (CCVPERLSPISVLFFDNEDNVVLRHYEDMVVDECGCR; Comparative sequence) [compound 2230]
hMSCs [1]; [5]
  STRO-1 expression (%): 81%
hMSCs [2]
  CD-105 expression (%): 78%

## 2262 (HVTKPTSVPTKLSPISILFIDDSSNVIYKQYENMVVESSGSH; GFR-binding peptide) [compound 2262]
hMSCs [1]; [7]
  STRO-1 expression (%): 18%

## 2254 (VPTMMSNITTQIMRIKPHQGQHIGEMSMMQHN; GFR-binding peptide) [compound 2254]
hMSCs [1]; [7]
  STRO-1 expression (%): 19%

## 2188 (SSVPAVCSATSATGPYSSGSVEVTFDVYATTVY; Peptide reported in EP1687419, SEQ ID NO:45) [compound 2188]
hMSCs [1]; Table 6, previously reported peptides in solution, 400 ng/mL
  STRO-1 expression (%): 92%
